By GI50 is commonly meant the concentration at which growth is held to half of that of the control. High values mean lower sensitivity of the cells, low ones greater sensitivity of the cells. The term inhibition denotes the drop in the measured response relative to a control, in per cent.

For 20 compounds, GI50, inhibition and Activity results are on record in ChEMBL document CHEMBL3882242, “Synthesis and biological evaluation of analogs of the antimitotic marine natural product curacin A” (2002).

Structures are written as SMILES. The source made the active and inactive calls. The rule behind the calls is not given here. Where only a bound is given, the exact number is not on record here.

The nature of assay [1]: Growth inhibition of human 2008 cells incubated for 48 hrs by MTS assay. Type of assay: functional. As to conditions: Homo sapiens, 2008, 48 h. On the technique in general: Tetrazolium assays rely on reduction of a dye to a coloured formazan, in cell work by metabolically active cells.
Assay [2] deals with T1, Tubulin (Bos taurus) (UniProt Q6B856+Q862L2+Q862F3). Nature of the assay: Inhibition of GTP/glutamate-induced bovine brain tubulin polymerization at 5 uM by […].
Assay [3] concerns the target T1, Tubulin (Bos taurus). Put plainly: Inhibition of [3H]colchicin binding to bovine brain tubulin incubated at 5 uM and 30 degreeC for 10 mins in presence of GTP by scintillation spectroscopic method.
Assay [4] can be described thus: Growth inhibition of human PC3 cells incubated for 48 hrs by MTS assay. Type of assay: functional. As to conditions: PC-3, 48 h.
Assay [5] is described as follows: Growth inhibition of human 2008 cells incubated for 96 hrs by MTS assay. Type of assay: functional. The settings on record: Homo sapiens, 2008, 96 h.
Assay [6] in a line: Growth inhibition of human MDA-MB-231 cells incubated for 96 hrs by MTS assay. The assay is classed as functional. The settings on record: MDA-MB-231, 96 h.
Assay [7] is described as follows: Growth inhibition of human MDA-MB-231 cells incubated for 48 hrs by MTS assay. The assay is classed as functional. As to conditions: MDA-MB-231, 48 h.
The nature of assay [8]: Growth inhibition of human PC3 cells incubated for 96 hrs by MTS assay. The assay is classed as functional. The settings on record: PC-3, 96 h.
For assay [9], the system named is MCF7. Nature of the assay: Antimitotic activity in human MCF7 cells assessed as increase in mitotic index at 7.8 to 1000 nM measured after 14 to 16 hrs by immunohistochemical analysis. Type of assay: functional, cell-based.
Assay [10] addresses T1, Tubulin (Bos taurus). Nature of the assay: Inhibition of [3H]colchicine binding to bovine brain tubulin at 50 uM relative to control.
The target of assay [11] is T1, Tubulin (Bos taurus). Nature of the assay: Inhibition of [3H]colchicin binding to bovine brain tubulin incubated at 50 uM and 30 degreeC for 10 mins in presence of GTP by scintillation spectroscopic method.
For assay [12], the system named is MCF7. Put plainly: Antimitotic activity in human MCF7 cells assessed as induction of cell rounding at 7.8 to 1000 nM measured after 14 to 16 hrs by immunohistochemical analysis. Type of assay: functional, cell-based.
Assay [13] relates to MCF7. Put plainly: Antimitotic activity in human MCF7 cells assessed as disruption of microtubules at 7.8 to 1000 nM measured after 14 to 16 hrs by immunohistochemical analysis. The assay is classed as functional, cell-based.
Assay [14] relates to MCF7. Put plainly: Antimitotic activity in human MCF7 cells assessed as chromatin condensation at 7.8 to 1000 nM measured after 14 to 16 hrs by immunohistochemical analysis. Type of assay: functional, cell-based.
Assay [15] has as its system MCF7. Nature of the assay: Antimitotic activity in human MCF7 cells assessed as increase in core histone phosphorylation at 7.8 to 1000 nM measured after 14 to 16 hrs by immunohistochemical analysis. Type of assay: functional, cell-based.
For assay [16], the target named is T1, Tubulin (Bos taurus). Put plainly: Inhibition of [3H]colchicine binding to bovine brain tubulin at 5 uM relative to control.

Take `C=CC[C@@H](CC[C@@]1(C)C[C@H]1[C@H]1C[C@@H]1CC/C=C\[C@@H]1CSC([C@@H]2C[C@@H]2C)=N1)OC`: the GI50 in assay [1], in assay [4], in assay [5], in [6], in assay [7] and in assay [8] was over 50000 nM each time. The inhibition in [2] amounted to 0%; in assay [3], 9%.

Regarding `COc1cc(/C=C\CC/C=C/C=C(\C)CCC(O)c2ccco2)cc(OC)c1OC` (stereo not given), in [9], the outcome was Active.

In the case of `COc1ccc(/C=C\CC/C=C/C=C(\C)CCC(O)c2ccccc2OC)c(OC)c1` (stereo not given), the GI50 in [4], in assay [7] and in assay [8] was over 50000 nM each time.

Take `COc1ccc(/C=C\CC/C=C/C=C(\C)CCC(O)c2cc3ccccc3s2)c(OC)c1` (stereo not given): the inhibition in assay [10] was under 26.4%. The GI50 in [4], in assay [7] and in assay [8] was over 50000 nM each time.

Turning to `C=CC[C@@H](CC/C(C)=C/C=C/CC/C=C\[C@@H]1COC(/C=C/c2ccccc2)=N1)OC`, in [3], the inhibition was determined as 9%.

As to `COc1cc(/C=N\OC[C@@H]2C[C@H]2CCC(C)c2cccs2)cc(OC)c1OC` (stereo not given in full), the concentration for 50% growth inhibition (GI50) in [1], in [4], in assay [5], in [6], in [7] and in assay [8] was over 50000 nM in each case. Moreover, the inhibition was -10% in assay [3] and 18% in assay [11].

With `COc1cc(/C=C\CC/C=C/C=C(\C)CCC(O)c2cc3ccccc3s2)cc(OC)c1OC` (stereo not given), the result in [12], in [13], in assay [14], in assay [15] and in [9] was Active. Moreover, the 50% growth inhibitory concentration (GI50) in assay [1] is 360 to 380 nM; in assay [4], 620 to 875 nM; in assay [5], 235 nM; in [6], 1280 nM; in assay [7], 83 to 230 nM; in assay [8], 1220 nM. The inhibition in assay [2] is over 100%; in assay [16] it was 30.2%.

For the compound `COc1cc(/C=N\OC/C=C/C=C(\C)CCC(O)c2cccs2)cc(OC)c1OC` (stereo not given), the inhibition came out at 100% in assay [2] and 57% in assay [11].

On to `COc1cc(/C=C\CC/C=C/C=C(\C)CCC(O)c2cccs2)cc(OC)c1OC` (stereo not given), for which the inhibition is 59% in assay [10], over 100% in assay [2] and 9.9% in assay [16]. The GI50 is 280 to 311 nM in assay [1]; 366 to 380 nM in assay [4]; 214 nM in [6]; 151 to 280 nM in assay [7]; 1020 nM in assay [8]. In [9], the outcome was Active.

With `C=CC[C@@H](CC/C(C)=C/C=C/CC/C=C\c1csc(C(C)(C)C)n1)OC`, the results for the inhibition in assay [2], in assay [3] and in [11] were 100%, 38% and 43%, respectively.

`COc1ccc(/C=C\CC/C=C/C=C(\C)CCC(O)c2cc(OC)ccc2OC)c(OC)c1` (stereo not given): the GI50 in [4] and in [8] was over 50000 nM in each case.

Consider `C=CC[C@@H](CC/C(C)=C/C=C/CC/C=C\[C@@H]1CSC([C@@H]2C[C@@H]2C)=N1)OC` [CURACIN A], for which the inhibition in assay [10] was in the range of 96.2 to 97.7%; in assay [2] it was 97.9 to 98%; in assay [16], 84.9 to 95%. The GI50 in assay [7] is 96 to 186 nM.

Turning to `C=CC[C@@H](CC/C(C)=C/C=C/CC/C=C\[C@@H]1COC(C(C)(C)C)=N1)OC`, the inhibition in assay [2] came out at 0%; in [3], 14%; in assay [11], 80%.

In the case of `COc1ccccc1C(O)CC/C(C)=C/C=C/CC/C=C\c1cc(OC)c(OC)c(OC)c1` (stereo not given), the figures for the inhibition in assay [10], in [2] and in assay [16] were 73%, over 100% and 5%, respectively. For the same compound, the GI50 is 314 to 330 nM in assay [1]; 620 to 933 nM in assay [4]; 268 nM in assay [5]; 221 nM in [6]; 243 to 340 nM in assay [7]. In addition, the result in assay [9] was Active.

`C=CC[C@@H](CC/C(C)=C/C=C/CC/C=C\[C@@H]1CSC(C(C)(C)C)=N1)OC`: the inhibition worked out at 100% in [2], 35% in [3] and 63% in assay [11].

Turning to `C=CC[C@@H](CC/C(C)=C/C=C/CC/C=C\c1coc(C(C)(C)C)n1)OC`, the inhibition in assay [3] and in assay [11] was 7% throughout. The GI50 in [5] and in assay [8] was over 50000 nM each time.

Consider `COc1cc(/C=N\OC[C@H]2C[C@@H]2[C@@H]2C[C@]2(C)CCC(O)c2cccs2)cc(OC)c1OC` (stereo not given in full), for which the GI50 in [1] amounted to 9900 nM; in assay [4] it was 1200 nM; in assay [5], 39000 nM; in [6], 15000 nM; in assay [7] it was 980 nM; in [8], 8800 nM. Further, the inhibition is 26% in [2], -9% in assay [3] and -1% in assay [11].

For the compound `COc1ccc(OC)c(C(O)CC/C(C)=C/C=C/CC/C=C\c2cc(OC)c(OC)c(OC)c2)c1` (stereo not given), the inhibition in [10] amounted to 20.3%; in assay [2], 3.5%; in assay [16], 0.7%. Further, the GI50 in [6] was determined as 8730 nM.

On to `COc1cc(/C=C\CC/C=C/C=C(\C)CCC(O)c2cc3ccccc3o2)cc(OC)c1OC` (stereo not given), for which the values for the inhibition in assay [10], in assay [2] and in [16] were 68.7%, 74.6% and 12.5%, respectively. Besides, the GI50 was 310 to 596 nM in [4]; 199 nM in assay [5]; 204 nM in assay [6]; 86 to 120 nM in [7]; 1120 nM in [8].

Consider `COc1ccc(/C=C\CC/C=C/C=C(\C)CCC(O)c2ccco2)c(OC)c1` (stereo not given), for which the GI50 in assay [4] and in assay [8] was over 50000 nM in each case.
